This note sets out measurements from patent publication US4990521A, “4-(aroylamino)piperidine-butanimide derivatives” (Janssen Pharmaceutica, priority 1989, dated 1991).

The nature of test [1]: Ricinus Oil Test in Rats (antidiarrheal activity). The format is in vivo. Conditions: Rattus norvegicus, po, 1 h, compound 1 hour before 1 ml ricinus oil orally, no diarrhea in 50% of animals 1 hour after ricinus oil, fasted female Wistar rats. An excerpt:
The use of the compounds of formula (I), their N-oxide forms, pharmaceutically acceptable acid-addition salts and stereoisomeric forms thereof in the method of the present invention is based on their useful antidiarrheal activity. This property is clearly evidenced by the experimental data obtained in, for example, the "Ricinus oil Test in Rats". […] By virtue of their useful antidiarrheal activity, it is evident that the compounds of formula (I), their N-oxide forms, pharmaceutically acceptable acid addition salts and stereoisomeric forms can be used in the treatment of diarrhea.
Female Wistar rats were fasted overnight. Each animal was treated orally with a dose level of the compound to be tested. One hour thereafter, the animal received 1 ml of ricinus oil orally. Each animal was kept in an individual cage and 1 hour after the ricinus oil treatment, the presence or absence of diarrhea was noted. The ED50 value was determined as that dose in mg/kg body weight, at which no diarrhea was present in 50% of the tested animals. Said ED50 -values for the compounds of the present invention can be found in the first column of Table 1.

Test [2] can be described thus: Tail Withdrawal Test in Rats (undesired central effects). The test is classed as in vivo. Conditions: Rattus norvegicus, oral, tail in 55° C. water, suppression of withdrawal response exceeding 10 seconds in 50% of animals, fasted male Wistar rats. The method, then:
Male Wistar rats were fasted overnight. Each animal was treated orally with a dose level of the compound to be tested. The thus treated rats Were put into individual restraining cages. At various time periods after administration, the lower 5 cm portion of the tail was immersed into a cup filled with water at a constant temperature of 55° C. The typical tail withdrawal response was evaluated during a 10 seconds period after the immersion. ED50 values in mg/kg body weight were determined as that dose of the test compound capable of suppressing in 50% of the tested animals the typical tail withdrawal response during a time period exceeding 10 seconds. Said ED50 values obtained for the compounds of the present invention are gathered in Table 1 column two.

Turning to `CC(CC(C(=O)N(C)C)(c1ccccc1)c1ccccc1)N1CC[C@@H](NC(=O)c2cccc(C(F)(F)F)c2)[C@H](O)C1` (relative stereo) [Compound 1, trans-3-hydroxy-N,N,γ-trimethyl-α,α-diphenyl-4-[[3-(trifluoromethyl)benzoyl]amino]-1-piperidinebutanamide], the ED50 (commonly the dose that gives a 50% effect, or the effect in half of the subjects) in test [1] was 0.15 mg/kg; in test [2] it was greater than 160 mg/kg.

`CC(CC(C(=O)N(C)C)(c1ccccc1)c1ccccc1)N1CC[C@@H](NC(=O)c2ccc(Cl)c(Cl)c2)[C@H](O)C1` (relative stereo) [Compound 2]: the median effective dose (ED50) is 0.63 mg/kg in test [1] and greater than 160 mg/kg in test [2].

As to `CC(CC(C(=O)N(C)C)(c1ccccc1)c1ccccc1)N1CC[C@@H](NC(=O)c2c(Cl)cccc2Cl)[C@H](O)C1` (relative stereo) [Compound 5], the ED50 in test [1] was 0.31 mg/kg; in test [2] it was no less than 40 mg/kg.

Consider `CC(CC(C(=O)N(C)C)(c1ccccc1)c1ccccc1)N1CC[C@@H](NC(=O)c2cc(Cl)cc(Cl)c2)[C@H](O)C1` (relative stereo) [Compound 7], for which the ED50 is 0.31 mg/kg in test [1] and greater than 40 mg/kg in test [2].

`CC(CC(C(=O)N(C)C)(c1ccccc1)c1ccccc1)N1CC[C@@H](NC(=O)c2cccc(Cl)c2)[C@H](O)C1` (relative stereo) [Compound 10]: the ED50 was 0.04 mg/kg in test [1] and greater than 40 mg/kg in test [2].

With `CC(CC(C(=O)N(C)C)(c1ccccc1)c1ccccc1)N1CC[C@@H](NC(=O)c2cccc(Cl)c2[N+](=O)[O-])[C@H](O)C1` (relative stereo) [Compound 17], the ED50 in test [1] is 0.63 mg/kg; in test [2], greater than 40 mg/kg.

`CC(CC(C(=O)N(C)C)(c1ccccc1)c1ccccc1)N1CC[C@@H](NC(=O)c2ccc(F)cc2[N+](=O)[O-])[C@H](O)C1` (relative stereo) [Compound 19]: the ED50 in test [1] is 1.25 mg/kg; in test [2], greater than 40 mg/kg.

Take `Cc1ccc([N+](=O)[O-])c(C(=O)N[C@@H]2CCN(C(C)CC(C(=O)N(C)C)(c3ccccc3)c3ccccc3)C[C@H]2O)c1` (relative stereo) [Compound 21]: the ED50 in test [1] was no more than 0.63 mg/kg; in test [2] it was greater than 40 mg/kg.

With `CC(CC(C(=O)N(C)C)(c1ccccc1)c1ccccc1)N1CC[C@@H](NC(=O)c2ccccc2OCc2ccccc2)[C@H](O)C1` (relative stereo) [Compound 29, trans-3-hydroxy-N,N,γ-trimethyl-α,α-diphenyl-4-[[2-(phenylmethoxy)benzoyl]amino]-1-piperidinebutanamide], the ED50 in test [1] is no more than 0.63 mg/kg; in test [2], roughly 40 mg/kg.

For `COc1cc(Cl)ccc1C(=O)N[C@@H]1CCN(C(C)CC(C(=O)N(C)C)(c2ccccc2)c2ccccc2)C[C@H]1O` (relative stereo) [Compound 30], the results for the ED50 in test [1] and in test [2] were 0.63 mg/kg and no less than 40 mg/kg, respectively.

As for `COc1c(Cl)cc(Cl)cc1C(=O)N[C@@H]1CCN(C(C)CC(C(=O)N(C)C)(c2ccccc2)c2ccccc2)C[C@H]1O` (relative stereo) [Compound 31], the figures for the ED50 in test [1] and in test [2] were 0.63 mg/kg and roughly 40 mg/kg, respectively.

As to `CCCC(=O)c1ccc(OC)c(C(=O)N[C@@H]2CCN(C(C)CC(C(=O)N(C)C)(c3ccccc3)c3ccccc3)C[C@H]2O)c1` (relative stereo) [Compound 34], the ED50 in test [1] is less than 2.5 mg/kg; in test [2], greater than 40 mg/kg.

Take `CC(CC(C(=O)N(C)C)(c1ccccc1)c1ccccc1)N1CC[C@@H](NC(=O)c2cccc([N+](=O)[O-])c2Br)[C@H](O)C1` (relative stereo) [Compound 38]: the ED50 is 2.5 mg/kg in test [1] and greater than 40 mg/kg in test [2].

Turning to `CC(CC(C(=O)N(C)C)(c1ccccc1)c1ccccc1)N1CC[C@@H](NC(=O)c2cc(Cl)ccc2N)[C@H](O)C1` (relative stereo) [Compound 47, trans-4-[(2-amino-5-chlorobenzoyl)amino]-3-hydroxy-N,N,γ-trimethyl-α,α-diphenyl-1-piperidinebutanamide], the ED50 in test [1] is 0.08 mg/kg; in test [2], roughly 40 mg/kg.
